Target: T1, NLRP3 inflammasome (Homo sapiens, UniProt Q96P20)
T1 construct: host or cells: THP-1 human monocytic cells, PMA-treated, stimulated with gramicidin
Assay: ASC-SPECK formation in THP-1 cells after gramicidin stimulation (NLRP3 inflammasome activation)
Type: cell-based
Settings: PMA-treated human monocytic THP-1 cells, compound 1 h before 12.5 ug/ml gramicidin, 3 h, ASC SPECK imaging; read-out: EC50 (nM) for Examples that inhibit NLRP3 inflammasome activation
Method: The ability of compounds to inhibit NLRP3 inflammasome activation was determined in vitro by monitoring formation of the ASC-SPECK in human monocytic THP-1 cells after stimulation. THP-1 cells (ATCC catalog #TIB-202) were maintained in complete growth media containing Roswell Park Memorial Institute RPMI (ATCC catalog #30-2001), 10% heat inactivated fetal bovine serum, 1× penicillin/streptomycin and 0.05 mM 2-mercaptoethanol. At the start of the assay, undifferentiated THP-1 cells were plated at a density of 20,000 cells per well in a 384-well plate (Poly-D-lysine coated Cell Carrier Ultra microplate, Perkin Elmer catalog #6057500) in complete growth media supplemented with 10 ng/ml phorbol 12-myristate 13-acetate (PMA; Sigma catalog #P8139), and then incubated overnight. The next day, media was replaced with assay media [RPMI (Gibco catalog #11875-093), 0.01% bovine serum albumin (BSA)]. Compounds were serially diluted in DMSO and then added to wells one hour prior to the addition of 12.5 ug/ml Gramicidin (Enzo Lifescience, catalog #ALX-350-233-M005). All incubations were carried out at 37° C. (5% CO2/95% air). Following a 3-hour treatment with gramicidin, cells are fixed with 4% paraformaldehyde and stored at 4° C. until immunofluorescence staining.
Immunofluorescence staining: Anti-ASC antibody (MBL catalog #D086-3) was desalted and labeled with Alexa 488 antibody labeling kit (Thermo catalog #A20181) prior to use as described below. After fixation, the following steps were carried out at room temperature. Cells were first permeabilized with 0.3% Triton X-100 in phosphate-buffered saline (PBS) for 15 minutes and then incubated in blocking buffer containing 5% goat serum, 0.3% tween-20 and 0.03% sodium azide in PBS for 1 hour. Cells were stained with a mixture of ASC-Alexa 488 antibody (diluted 1:200 in blocking buffer) and nuclear stain DRAQ5 (1:5000 in blocking buffer, Thermo catalog #62251) in blocking buffer for 1 hour. Following a wash with 0.3% Tween-20 in PBS, plates were imaged with an Opera Phenix High Content Screening System. The number of DRAQ5 positive cells containing ASC SPECKS were quantified in each well.
Data analysis: EC50 values were calculated by standard curve-fitting analysis using an internally developed program in TIBCO Spotfire software.

T1 sequence (Q96P20 whole entry): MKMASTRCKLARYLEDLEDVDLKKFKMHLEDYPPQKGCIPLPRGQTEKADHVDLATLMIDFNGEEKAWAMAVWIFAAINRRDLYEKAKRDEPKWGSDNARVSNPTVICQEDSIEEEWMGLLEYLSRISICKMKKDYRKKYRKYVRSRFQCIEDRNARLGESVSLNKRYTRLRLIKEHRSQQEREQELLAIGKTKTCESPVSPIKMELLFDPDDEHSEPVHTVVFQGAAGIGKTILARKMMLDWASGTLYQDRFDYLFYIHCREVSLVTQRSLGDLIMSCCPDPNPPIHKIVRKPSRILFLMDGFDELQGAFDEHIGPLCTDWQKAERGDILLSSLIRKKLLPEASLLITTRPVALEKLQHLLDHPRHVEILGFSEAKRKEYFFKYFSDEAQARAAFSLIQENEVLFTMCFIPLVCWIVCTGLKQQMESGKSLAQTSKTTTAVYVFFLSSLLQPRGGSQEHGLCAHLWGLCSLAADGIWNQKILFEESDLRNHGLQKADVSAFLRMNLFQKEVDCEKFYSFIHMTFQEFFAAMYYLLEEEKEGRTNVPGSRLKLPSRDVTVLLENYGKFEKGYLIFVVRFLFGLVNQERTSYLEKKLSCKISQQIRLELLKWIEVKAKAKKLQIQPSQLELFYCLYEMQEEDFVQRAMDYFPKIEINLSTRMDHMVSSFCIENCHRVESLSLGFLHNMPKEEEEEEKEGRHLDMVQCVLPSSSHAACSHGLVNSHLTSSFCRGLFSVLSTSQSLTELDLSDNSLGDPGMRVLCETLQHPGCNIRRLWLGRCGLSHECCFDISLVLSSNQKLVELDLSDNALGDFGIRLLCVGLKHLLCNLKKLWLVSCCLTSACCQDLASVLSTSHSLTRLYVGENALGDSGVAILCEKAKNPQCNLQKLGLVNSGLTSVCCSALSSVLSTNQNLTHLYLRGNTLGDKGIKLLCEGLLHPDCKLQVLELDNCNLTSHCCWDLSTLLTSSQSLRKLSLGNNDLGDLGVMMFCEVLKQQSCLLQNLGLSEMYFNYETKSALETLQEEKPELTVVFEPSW

EC50	SMILES
304 nM	O=C1NCC2(CCN(c3nnc(-c4ccc(C(F)(F)F)cc4O)c4cccnc34)CC2)O1 [Example 40, 8-(5-(2-hydroxy-4-(trifluoromethyl)phenyl)pyrido [2,3-d]pyridazin-8-yl)-1-oxa-3,8-diazaspiro[4.5]decan-2-one]
1130 nM	CC1(C)CCOC12CCN(c1nnc(-c3ccc(C(F)(F)F)cc3O)c3cccnc13)CC2 [Example 37, 2-(8-(4,4-dimethyl-1-oxa-8-azaspiro[4.5]decan-8-yl)pyrido[2,3-d]pyridazin-5-yl)-5-(trifluoromethyl)phenol]
563 nM	CN1C(=O)CCC12CCN(c1nnc(-c3ccc(C(F)(F)F)cc3O)c3cccnc13)CC2 [Example 39, 8-(5-(2-hydroxy-4-(trifluoromethyl)phenyl)pyrido [2,3-d]pyridazin-8-yl)-1-methyl-1,8-diazaspiro[4.5]decan-2-one]
356 nM	C[C@]1(O)CCN(c2nnc(-c3ccc(C(F)(F)F)cc3O)c3cnccc23)C1 (single isomer, unassigned) [Example 1]
447 nM	Oc1cc(C(F)(F)F)ccc1-c1nnc(N2CCC(O)(C(F)F)C2)c2ncccc12 (racemic) [Example 28, (R and S)-3-(difluoromethyl)-1-(5-(2-hydroxy-4-(trifluoromethyl)phenyl)pyrido [2,3-d]pyridazin-8-yl)pyrrolidin-3-ol]
1180 nM	Oc1cc(C(F)(F)F)ccc1-c1nnc(N2CCC(O)(C3CC3)C2)c2ncccc12 (racemic) [Example 45, (R and S)-3-cyclopropyl-1-(5-(2-hydroxy-4-(trifluoromethyl)phenyl)pyrido [2,3-d]pyridazin-8-yl)pyrrolidin-3-ol]
124 nM	C[C@]1(O)CCN(c2nnc(-c3ccc(C(F)(F)F)cc3O)c3cccnc23)C1 [Example 22, (S)-1-(5-(2-hydroxy-4-(trifluoromethyl)phenyl)pyrido[2,3-d]-pyridazin-8-yl)-3-methylpyrrolidin-3-ol]

Continued, molecule first:

SMILES	EC50
C[C@@H]1CN(c2nnc(-c3ccc(C(F)(F)F)cc3O)c3cnncc23)C[C@H](C)[C@]1(C)O [Example 13, (3S,4s,5R)-1-(4-(2-hydroxy-4-(trifluoromethyl)phenyl)pyridazino [4,5-d]pyridazin-1-yl)-3,4,5-trimethylpiperidin-4-ol]	264 nM
C[C@]1(O)CCN(c2nnc(-c3ccc(C(F)(F)F)cc3O)c3ccc(C(F)F)nc23)C1 [Example 56]	90 nM
Cc1cccc2c(N3C[C@@H](C)O[C@@H](C)C3)nnc(-c3ccc(C(F)(F)F)cc3O)c12 [Example 15, 2-(4-((cis)-2,6-dimethylmorpholino)-8-methylphthalazin-1-yl)-5-(trifluoromethyl)phenol]	3680 nM
C[C@@H]1CN(c2nnc(-c3ccc(C(F)(F)F)cc3OC(F)F)c3ccncc23)C[C@H](C)O1 [Example 7, (cis)-4-(1-(2-(difluoromethoxy)-4-(trifluoromethyl)phenyl)pyrido[3,4-d]pyridazin-4-yl)-2,6-dimethylmorpholine]	570 nM
C[C@@H]1CN(c2nnc(-c3ccc(C(F)(F)F)cc3O)c3ccnnc23)C[C@H](C)O1 [Example 8, 2-(8-((cis)-2,6-dimethylmorpholino)pyridazino[4,5-c]pyridazin-5-yl)-5-(trifluoromethyl)phenol]	515 nM
C[C@@H]1CN(c2nnc(-c3ccc(C(F)(F)F)cc3O)c3cnccc23)C[C@H](C)[C@H]1O [Example 19, (3S,4r,5R)-1-(4-(2-hydroxy-4-(trifluoromethyl)phenyl)pyrido[3,4-d]pyridazin-1-yl)-3,5-dimethylpiperidin-4-ol]	68 nM
C[C@@H]1C[C@@](O)(c2nnc(-c3ccc(C(F)(F)F)cc3O)c3cccnc23)C[C@H](C)O1 [Example 55, (2R,4r,6S)-4-(5-(2-hydroxy-4-(trifluoromethyl)phenyl)pyrido[2,3-d]-pyridazin-8-yl)-2,6-dimethyltetrahydro-2H-pyran-4-ol]	1340 nM

From patent US20240124451A1, “PHTHALAZINE DERIVATIVES USEFUL AS INHIBITORS OF NOD-LIKE RECEPTOR PROTEIN 3” (Merck Sharp & Dohme LLC, priority 2022, published 2024)
